We go through 3 molecules from patent US9789130B2, “Method for blocking HIV entry into dendritic cells by inhibiting sialoadhesin-sialyllactose binding interactions with gangliosides” (LABORATORIOS DEL DR. ESTEVE, S.A., priority 2011, dated 2017).

Assay [1] concerns the target T1, Siglec-1 (Homo sapiens, UniProt Q9BZZ2). Put plainly: VLP capture by Siglec-1 transfected Raji B cells. Type of assay: cell-based. Conditions: mAbs 10 μg/ml; sialyllactose at indicated concentrations, 30 min prior to VLP pulse. Here is the method: Raji cells (2×10^6) were transfected with vector backbone pCMV6-Entry (Origene) comprising the coding region of Siglec-1, Siglec-5, or Siglec-7 using Amaxa nucleofector as recommended by the manufacturer. At 36 h posttransfection, cells were assessed for VLP capture and HIV-1 trans-infection (at a ratio 2:1) as described above. When indicated, cells were pre-incubated with decreasing concentrations of 3′-Sialyllactose (Carbosynth) or Lactose (Sigma-Aldrich) 30 min prior to VLP pulse. In experiments with envelope-deficient viruses, 5×10^5 cells were pulsed with 100 ng of p24^Gag estimated by ELISA for 4 h at 37° C. and assessed for capture and trans-infection (at a ratio 2:1) as aforementioned. HEK-293T cells were transfected using Fugene HD (Promega) and assessed 24 h posttransfection as described for Raji cells. Trans-infection of HEK-293T was tested in a different luminometer (Luminoskan Ascent, Thermo Labsystems), and collected data were normalized to 100%. Transfection efficiency in both cell types was assessed staining cells with anti-Siglec-1-PE 7-239 mAb, anti-Siglec-7-PE 5-386 mAb (AbD Serotec), and anti-Siglec-5/14-PE 1A5 mAb (Biolegend) and evaluated by FACS. Stable Raji DC-SIGN cells were labeled with anti-DC-SIGN-PE DCN46 mAb (BD Pharmigen).

A further assay deals with mDCs. Kind of assay: Lactose and GM3 polar head group treatment of mDCs before LUV/VLP capture. Type of assay: cell-based, human. Conditions: mDCs pre-incubated with 5 to 10 mM compound, relative to mock-treated mDCs. Here is the method:
mDCs were preincubated with or without 5 or 10 mM of lactose (Sigma-Aldrich Co., Saint Louis, Mo., US) and soluble GM3 carbohydrate head group (Carbosynth Ltd., Compton, Berkshire, GB) for 30 min at RT. Cells were then pulsed with 50 μM of GM3-containing LUVHIv-tRed and 75 ng of sucrose-pelleted VLPHIv-Gag-eGFP Gag for 2 h at 37° C., at a final concentration of 5 or 10 mM for the compounds tested. Cells were analyzed by FACS as described previously.

Assay [2] has as its target T1, Siglec-1. Put plainly: VLP capture by LPS mDCs pre-incubated with α-Siglec-1 mAbs. Type of assay: cell-based. Further details: Siglec-1 expressed in LPS mDCs capture distinct ganglioside containing vesicles; endogenous in cells; host or cells: LPS-matured monocyte-derived dendritic cells (LPS mDCs) from donor PBMCs. Conditions: 2 μg/ml mAb 7D2 treated with at least 100-fold molar excess of human recombinant protein. Here is the method: FIG. 11. Siglec-1 expressed in LPS mDCs capture distinct ganglioside containing vesicles, such as HIV-1 viral-like particles, liposomes, and exosomes. Capture of VLPHIV-Gag-eGFP by LPS mDCs that had been pre-incubated with decreasing concentrations of α-Siglec-1 mAb 7D2 before VLP exposure for 30 min at 37° C.
FIG. 12. Capture of VLPHIV-Gag-eGFP by LPS mDCs that had been pre-incubated with or without 2 μg/ml of α-Siglec-1 mAb 7D2 previously treated or not with at least a 100-fold molar excess of the indicated human recombinant proteins. Of note, Siglec-14 shares 100% of amino acid homology with Siglec-5 in the V-set domain.
FIG. 13. Blocking effect of α-Siglec-1 mAb 7-239. (A) Capture of VLPHIV-Gag-eGFP by LPS mDCs that had been pre-incubated with decreasing concentrations of α-Siglec-1 mAb 7-239 before VLP exposure for 30 min at 37° C. […] (B) Capture of VLPHIV-Gag-eGFP by LPS mDCs that had been pre-incubated with 10 μg/ml of the indicated mAbs before VLP exposure for 3 h at 37° C.

T1 sequence (Q9BZZ2 20-1709): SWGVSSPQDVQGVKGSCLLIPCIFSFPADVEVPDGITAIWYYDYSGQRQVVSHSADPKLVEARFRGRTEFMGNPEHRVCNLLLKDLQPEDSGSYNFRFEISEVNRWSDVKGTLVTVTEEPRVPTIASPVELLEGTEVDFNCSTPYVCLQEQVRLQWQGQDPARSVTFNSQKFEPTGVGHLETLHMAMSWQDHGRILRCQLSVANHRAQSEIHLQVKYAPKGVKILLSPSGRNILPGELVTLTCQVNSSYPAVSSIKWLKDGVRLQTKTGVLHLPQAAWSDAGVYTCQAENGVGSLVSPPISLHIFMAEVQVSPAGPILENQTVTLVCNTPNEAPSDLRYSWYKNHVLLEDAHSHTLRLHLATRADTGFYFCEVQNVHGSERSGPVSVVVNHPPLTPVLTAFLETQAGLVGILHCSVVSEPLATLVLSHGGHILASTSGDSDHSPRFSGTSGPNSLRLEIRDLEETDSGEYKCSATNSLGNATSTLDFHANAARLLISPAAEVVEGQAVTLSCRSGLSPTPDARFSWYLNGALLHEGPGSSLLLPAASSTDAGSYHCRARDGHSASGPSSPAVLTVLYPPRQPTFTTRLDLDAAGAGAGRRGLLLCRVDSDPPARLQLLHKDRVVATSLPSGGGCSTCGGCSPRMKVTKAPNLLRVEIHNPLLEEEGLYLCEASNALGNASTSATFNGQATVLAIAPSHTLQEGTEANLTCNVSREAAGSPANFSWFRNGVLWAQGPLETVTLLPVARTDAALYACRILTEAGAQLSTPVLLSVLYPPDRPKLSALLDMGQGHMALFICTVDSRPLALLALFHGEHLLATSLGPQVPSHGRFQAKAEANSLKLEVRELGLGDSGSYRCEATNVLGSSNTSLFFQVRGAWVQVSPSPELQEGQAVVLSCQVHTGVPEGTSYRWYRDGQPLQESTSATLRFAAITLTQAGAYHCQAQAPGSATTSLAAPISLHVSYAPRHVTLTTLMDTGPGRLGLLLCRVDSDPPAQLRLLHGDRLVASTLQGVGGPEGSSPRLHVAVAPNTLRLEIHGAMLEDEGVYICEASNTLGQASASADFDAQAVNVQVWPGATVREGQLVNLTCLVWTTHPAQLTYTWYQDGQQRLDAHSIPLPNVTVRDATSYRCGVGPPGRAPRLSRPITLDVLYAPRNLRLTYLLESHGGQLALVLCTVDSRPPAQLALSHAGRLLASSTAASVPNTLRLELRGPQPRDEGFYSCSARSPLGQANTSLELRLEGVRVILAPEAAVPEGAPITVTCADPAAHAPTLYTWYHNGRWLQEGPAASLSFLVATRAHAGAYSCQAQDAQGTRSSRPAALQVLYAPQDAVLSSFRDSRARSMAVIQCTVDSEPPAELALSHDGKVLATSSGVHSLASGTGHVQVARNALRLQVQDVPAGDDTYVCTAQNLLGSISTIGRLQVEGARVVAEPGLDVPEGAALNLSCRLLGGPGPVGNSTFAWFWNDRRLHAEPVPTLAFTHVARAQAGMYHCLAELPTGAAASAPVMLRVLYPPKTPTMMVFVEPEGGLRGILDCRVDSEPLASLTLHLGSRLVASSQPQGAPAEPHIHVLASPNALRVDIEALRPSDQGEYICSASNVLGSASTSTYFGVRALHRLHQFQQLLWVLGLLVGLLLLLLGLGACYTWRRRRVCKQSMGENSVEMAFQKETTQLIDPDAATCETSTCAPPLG

Turning to `CC(=O)N[C@H]1[C@H]([C@H](O)[C@H](O)CO)O[C@@](O[C@H]2[C@@H](O)[C@@H](CO)O[C@@H](O[C@H]3[C@H](O)[C@@H](O)C(O)O[C@@H]3CO)[C@@H]2O)(C(=O)O)C[C@@H]1O` (stereo partly drawn) [sialyllactose, 3′-Sialyllactose], the “VLPHIV-Gag-eGFP capture by Siglec-1 transfected Raji cells after pre-incubation with inhibitor” value on Siglec-1 [1] is “blocked VLP capture”.

Consider `CC(=O)N[C@H]1[C@H]([C@H](O)[C@H](O)CO)O[C@@](O[C@H]2[C@@H](O)[C@@H](CO)O[C@@H](O[C@H]3[C@H](O)[C@@H](O)C(O)O[C@@H]3CO)[C@@H]2O)(C(=O)O)C[C@@H]1O` (stereo partly drawn) [soluble GM3], for which, in the assay on mDCs, the “capture of GM3-containing LUVHIV-tRed by mDCs in the presence of soluble carbohydrate” value is “completely blocked” and the “capture of VLPHIV-Gag-eGFP by mDCs in the presence of soluble carbohydrate” value is on record as “completely blocked”. For the same molecule, in the assay on mDCs (listed as GM3 polar head group), the “capture of GM3-containing LUVHIV-tRed by mDCs in the presence of soluble carbohydrate” value is recorded as “captured less particles” and the “capture of VLPHIV-Gag-eGFP by mDCs in the presence of soluble carbohydrate” value is “captured less particles”.

Turning to “purified Siglec-1: human recombinant Siglec-1 protein used to pre-treat mAb 7D2”, the “VLP capture by LPS mDCs with mAb 7D2 pre-incubated with purified protein” value with Siglec-1 [2] is given as “completely restored VLP capture”.
